Test results: publication doi:10.1101/2022.03.11.483894v1, “Structure and function of diadenylate cyclase DacM from Mycoplasma ovipneumoniae” (biorxiv, 2022)

Target: T1, DacM (Δ2-33DacM; DacM (35-203)) (Mesomycoplasma ovipneumoniae, UniProt A0A014M399)
T1 construct: gene MOVI_0530; N-terminal transmembrane helix removed (Δ2-33); codon-optimized gene in pET28b, E. coli BL21(DE3), N-terminal His6 fusion; homodimer in crystal
T1 sequence (A0A014M399 35-203): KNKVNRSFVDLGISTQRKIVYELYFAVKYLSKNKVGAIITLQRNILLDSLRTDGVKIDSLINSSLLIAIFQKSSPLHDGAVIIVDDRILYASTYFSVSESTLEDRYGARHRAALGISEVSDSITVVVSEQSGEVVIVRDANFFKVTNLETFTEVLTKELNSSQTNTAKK
Experiment: X-ray crystal structure of complex, […] Å; also LC-MS detection of c-di-AMP formation
Format: binding
Conditions: activity assay: 2 μM enzyme, 10 mM MgCl2, Tris-HCl pH 7.5, 37 °C, 1 h

Row | Structure (SMILES) | X-ray crystal structure of complex, 1.9 Å; also LC-MS detection of c-di-AMP form (crystal grown with ATP as additive, 16 °C, HEPES pH 7.5, active site of protomer B, 0.1 mM ADP) | X-ray crystal structure of complex, 1.9 Å; also LC-MS detection of c-di-AMP form (crystal: 16 °C, HEPES pH 7.5, active site of protomer A, 0.1 mM ATP)
1 | Nc1ncnc2c1ncn2[C@@H]1O[C@H](COP(=O)(O)OP(=O)(O)O)[C@@H](O)[C@H]1O [ADP] | active site of the second DacM protomer (protomer B), was consistent with a bound molecule of ADP | 
2 | Nc1ncnc2c1ncn2[C@@H]1O[C@H](COP(=O)(O)OP(=O)(O)OP(=O)(O)O)[C@@H](O)[C@H]1O [ATP] |  | an ATP molecule, which was clearly bound in the active site of one DacM protomer
